Results on 1 compound are retold here after article PMC8881610 (Nature Communications, 2022).

Assay in all cases: cAMP accumulation assay (LANCE Ultra cAMP kit), GIPR WT, mutant or modified constructs
What all share (assay type): cell-based
Common to all, as to design: acylated tirzepatide to the full-length or modified; Flag; expressed in transfected cells; host or cells: HEK293T

Experiment [1] deals with T1, GIPR (Homo sapiens, UniProt P48546, E135A).
T1 sequence (P48546 22-466 E135A): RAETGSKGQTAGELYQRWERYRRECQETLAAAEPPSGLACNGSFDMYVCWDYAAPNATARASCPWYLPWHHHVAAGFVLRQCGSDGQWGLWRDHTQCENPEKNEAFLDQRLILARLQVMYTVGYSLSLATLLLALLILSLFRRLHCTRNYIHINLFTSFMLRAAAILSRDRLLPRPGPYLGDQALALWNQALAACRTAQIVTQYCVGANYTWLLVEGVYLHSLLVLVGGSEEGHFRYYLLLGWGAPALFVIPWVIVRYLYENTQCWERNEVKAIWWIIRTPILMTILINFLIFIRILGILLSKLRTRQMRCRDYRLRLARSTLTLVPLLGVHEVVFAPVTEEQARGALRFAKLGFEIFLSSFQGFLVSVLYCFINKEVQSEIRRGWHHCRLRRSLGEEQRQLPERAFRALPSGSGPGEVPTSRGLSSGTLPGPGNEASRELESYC
The following applies: GIPR E135A, HEK293T. In a few lines:
(§1)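 HEK293T cells transiently transfected with human GIPR WT or mutant constructs (pcDNA3.1), used after 24 h. The cells were stimulated with peptide agonists for 40 min at RT in HBSS with 5 mM HEPES, 0.1% BSA or casein, and 0.5 mM IBMX. cAMP was read by LANCE Ultra TR-FRET (Eu-cAMP tracer/ULight anti-cAMP, 1 h RT, 620/650 nm).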

Experiment [2] deals with T2, GIPR (Homo sapiens, UniProt P48546, R192A).
T2 sequence (P48546 22-466 R192A): T1 sequence (P48546 22-466 E135A) with A114E, R171A
The following applies: GIPR R192A, HEK293T. In a few lines:
as §1

In experiment [3] the target is T3, GIPR (Homo sapiens, UniProt P48546, Y141A).
T3 sequence (P48546 22-466 Y141A): T1 sequence (P48546 22-466 E135A) with A114E, Y120A
The following applies: GIPR Y141A, HEK293T. The procedure, abridged:
as §1

[4] abbreviates: read-out: cAMP pEC50 (converted).

Positions count from the first letter of the chain named.

Consider `CCCCCCCCCCCCCCCC(=O)N[C@@H](CCC(=O)NCCCC[C@H](NC(=O)[C@H](CC(=O)O)NC(=O)[C@H](CO)NC(=O)[C@@H](NC(=O)[C@H](Cc1ccccc1)NC(=O)[C@@H](NC(=O)CNC(=O)[C@H](CCC(N)=O)NC(=O)C(C)(C)NC(=O)[C@@H](N)Cc1c[nH]cn1)[C@@H](C)O)[C@@H](C)O)C(=O)N[C@@H](CO)C(=O)N[C@@H](CCCCN)C(=O)N[C@@H](Cc1ccc(O)cc1)C(=O)N[C@@H](CC(C)C)C(=O)N[C@@H](CC(=O)O)C(=O)N[C@@H](CCC(=O)O)C(=O)N[C@@H](CCCNC(=N)N)C(=O)N[C@@H](C)C(=O)N[C@@H](C)C(=O)N[C@@H](CCC(N)=O)C(=O)N[C@@H](CC(=O)O)C(=O)N[C@@H](Cc1ccccc1)C(=O)N[C@H](C(=O)N[C@@H](CCC(N)=O)C(=O)N[C@@H](Cc1c[nH]c2ccccc12)C(=O)N[C@@H](CC(C)C)C(=O)N[C@@H](CC(C)C)C(=O)N[C@@H](CC(=O)O)C(=O)NCC(=O)NCC(=O)N1CCC[C@H]1C(=O)N[C@@H](CO)C(=O)N[C@@H](CO)C(=O)NCC(=O)N[C@@H](C)C(=O)N1CCC[C@H]1C(=O)N1CCC[C@H]1C(=O)N1CCC[C@H]1C(=O)N[C@@H](CO)C(N)=O)C(C)C)C(=O)O` [Peptide 20], for which the EC50 is 0.0427 nM on GIPR [1] (setting [4]), 0.0302 nM at GIPR [2] (setting [4]) and 3.72 nM at GIPR [3] (setting [4]). Further, the values for the Emax on GIPR [1] (HEK-293T), on GIPR [2] (HEK-293T) and on GIPR [3] (HEK-293T) were 100 ± 1.44%, 101 ± 1.91% and 75.1 ± 1.79%, respectively.
